Source: publication PMC13083723 (Patterns, 2026)
Residues, ends and D or L forms follow the SMILES beside them. *: point of attachment. Cbz = O=C(OCc1ccccc1)*

Test system: Vero-E6 cells
Assay: cells
Assay type: cell-based
Conditions: Chlorocebus sabaeus, Vero C1008, 24 h, read-out: PL_Result

Row | SMILES | activation at 10 µM [%]
1 | O=C(/C=C/C=C/c1ccc2c(c1)OCO2)N1CCCCC1 [SPE_K59522102] | 2.7
2 | CC(C)Nc1nc2cc(Cl)c(Cl)cc2n1[C@H]1O[C@@H](CO)[C@H](O)[C@@H]1O [SPE_K59524082] | -6.13
3 | CC[C@]1(O)C[C@H]2C[N@](CCc3c([nH]c4ccccc34)[C@@](C(=O)OC)(c3cc4c(cc3OC)N(C)[C@H]3[C@@](O)(C(N)=O)[C@H](O)[C@]5(CC)C=CCN6CC[C@]43[C@@H]65)C2)C1 [SPE_K59753975] | 7.07
4 | c1cc(-c2cnn3cc(-c4ccc(N5CCNCC5)cc4)cnc23)c2cccnc2c1 [SPE_K59831625] | 29.5
5 | CC(C)=CCC[C@](C)(O)[C@H]1CC[C@]2(C)[C@@H]1[C@H](O)C[C@@H]1[C@@]3(C)CC[C@H](O)C(C)(C)[C@@H]3CC[C@]12C [SPE_K60005752] | -8.61
6 | CN(C)c1ccc(C(=C2C=CC(=[N+](C)C)C=C2)c2ccc(N(C)C)cc2)cc1 [SPE_K60025295] | 5.79
7 | C=CCc1cc(OC)c(O)c(C(=O)NCCO)c1 [SPE_K60102752] | -3.89
8 | CC(C)C[C@@H](C=O)NC(=O)[C@H](CC(C)C)NC(=O)[C@H](CC(C)C)NC(=O)OCc1ccccc1 [SPE_K60230970] (Cbz-Leu-Leu-Leu-aldehyde) | -0.437
9 | NCc1cc(O)no1 [SPE_K60441002] | -7.28
10 | CCN(C(=O)c1c(O)c2c(Cl)cccc2n(C)c1=O)c1ccccc1 [SPE_K60918217] | -1.53
11 | N#Cc1cc(F)cc(-c2nc(-c3ccc(F)cn3)no2)c1 [SPE_K61043483] | 1.97
12 | COc1cc(-n2c(S)nc3ccccc3c2=O)c(Cl)cc1Cl [SPE_K61128465] | 22
13 | COc1cccc(NC(=O)/C=C/c2ccc(Cl)cc2)c1 [SPE_K61536336] | -7.48
14 | Cn1cccc1/C=C1\C(=O)NC(=O)c2ccccc21 [SPE_K61665160] | -5.42
15 | N=C(N)NC(=O)c1cnccn1 [SPE_K61693562] | -1.49
16 | CC(C)OC(=O)OCOP(=O)(CO[C@H](C)Cn1cnc2c(N)ncnc21)OCOC(=O)OC(C)C [SPE_K61868322] | -3.62
17 | CNC(=O)c1cc2c(cn1)[nH]c1ccccc12 [SPE_K61951118] | -1.18
18 | CC(C)(C)C(=O)NCCCC(=O)O [SPE_K62264492] | 5.19
19 | NC[C@H](CC(=O)O)c1ccc(Cl)cc1 [SPE_K62353271] | -10.2
20 | CN1CCN(c2c(F)cc3c(=O)c(C(=O)O)cn4c3c2SCC4)CC1 [SPE_K62374253] | -11.9
21 | COc1[nH]c2ccc(F)cc2c1C(=O)OCC1CCN(CCNS(C)(=O)=O)CC1 [SPE_K62594868] | -2.59

Row | SMILES | activation at 10 µM [%]
22 | COc1cccc(-c2cc(=O)c3ccccc3o2)c1N [SPE_K62810658] | 2.96
23 | Cc1cccc(C)c1NC(=O)CN1CCN(CCCC(c2ccc(F)cc2)c2ccc(F)cc2)CC1 [SPE_K62996583] | 90.9
24 | CCN(CCO)CCCOc1ccc2c(Nc3cc(CC(=O)Nc4cccc(F)c4)n[nH]3)ncnc2c1 [SPE_K63923597] | -6.57
25 | CC#CC(=O)N1CCC[C@H]1c1nc(-c2ccc(C(=O)Nc3ccccn3)cc2)c2c(N)nccn12 [SPE_K64034691] | -12.3
26 | COc1cc2ncnc(Nc3ccc(F)c(Cl)c3)c2cc1OCCCN1CCOCC1 [SPE_K64052750] | -10.1
27 | CNCCc1c[nH]cn1 [SPE_K64422603] | -17.3
28 | Cc1nc(N)sc1-c1ccnc(Nc2ccc(N3CCOCC3)cc2)n1 [SPE_K64866502] | -7.46
29 | Nc1ncnc2c1ncn2[C@@H]1O[C@H](CO)C[C@H]1O [SPE_K65428967] | -10.4
30 | COc1ccc([C@H]2CNC(=O)C2)cc1OC1CCCC1 [SPE_K65856711] | -5.06
31 | OC[C@H]1O[C@@H](OCCc2ccc(O)cc2)[C@H](O)[C@@H](O)[C@@H]1O [SPE_K66030860] | -4.58
32 | COc1cc(/C=C/C(=O)O)ccc1O [SPE_K66295376] | -10.8
33 | CN(C)C/C=C/C(=O)Nc1ccc(C(=O)Nc2cccc(Nc3ncc(Cl)c(-c4c[nH]c5ccccc45)n3)c2)cc1 [SPE_K66401437] | 6.67
34 | O=C(O)C1=CCNCC1 [SPE_K66480997] | -5.88
35 | O=C(Nc1cccc(Cl)c1)c1ccccn1 [SPE_K66527818] | -8.01
36 | CC(C)(C)c1ccc(NC(=O)N2CCN(c3ncccc3Cl)CC2)cc1 [SPE_K66541497] | -7.73
37 | O=C1C=CC[C@@H]2[C@H]3CCCN4CCC[C@@H](CN12)[C@@H]34 [SPE_K66845263] | -5.47
38 | CCCN(CCC)C(=O)Cc1c(-c2ccc(Cl)cc2)nc2ccc(Cl)cn12 [SPE_K66896751] | -0.969
39 | CCCCCCCC/C=C\CCCCCCCC(=O)NCCO [SPE_K66956375] | -6.58
40 | CN(C)CCc1c[nH]c2ccc(CS(=O)(=O)N3CCCC3)cc12 [SPE_K67601717] | -4.95
41 | O=C(NCCN1CCN(c2ncccn2)CC1)C12CC3CC(CC(C3)C1)C2 [SPE_K67789209] | -11.4
42 | COc1ccc(CNC(=O)Nc2ncc([N+](=O)[O-])s2)cc1 [SPE_K67860401] | -8.12

Row | SMILES | activation at 10 µM [%]
43 | Cc1[nH]c2ccc(F)cc2c1-c1nc2c3cccnc3c3ncccc3c2[nH]1 [SPE_K68003372] | -0.56
44 | CN(C)c1nc(N)c(C(=O)Nc2cccnc2)nc1Cl [SPE_K68633617] | -11.7
45 | O=C(COc1ccc(C(=O)c2ccccc2)cc1)NC1CCN(Cc2ccccc2)CC1 [SPE_K68810443] | -3.96
46 | O=C(Nc1cccnc1)N1CCC(Cc2cccc(Oc3ccc(C(F)(F)F)cn3)c2)CC1 [SPE_K68997413] | 1.53
47 | COc1ccccc1N1CCN(CCCCN2C(=O)c3ccccc3C2=O)CC1 [SPE_K69195780] | -5.05
48 | COc1cc(N)c(Cl)cc1C(=O)OCCN1CCCCC1 [SPE_K69343602] | -4.29
49 | C[C@]12C=CC(=O)C=C1CC[C@@H]1[C@@H]2CC[C@]2(C)OC(=O)CC[C@@H]12 [SPE_K69636617] | -2.05
50 | CC(C)C(=O)OC[C@H]1O[C@@H](n2ccc(N)nc2=O)[C@](C)(F)[C@@H]1OC(=O)C(C)C [SPE_K69726595] | -9.49
51 | COc1ccccc1N1CCN(CCN(C(=O)C2CCCCC2)c2ccccn2)CC1 [SPE_K69812556] | -15.3
52 | Clc1ccc(Nc2nnc(Cc3ccncc3)c3ccccc23)cc1 [SPE_K70163715] | -2.12
53 | O=C(NC[C@H](O)CN1CCc2ccccc2C1)c1cc(NC2COC2)ncn1 [SPE_K70446295] | -3.31
54 | C[C@@H]1CN(CCCn2c3ccccc3c3ccccc32)C[C@H](C)N1 [SPE_K70490179] | 109
55 | CNC(=O)c1c(C)oc2cc(Oc3ncnc4cc(OC)c(OC)cc34)ccc12 [SPE_K70504253] | 8.27
56 | CCCCCCCCCCC(=O)O[C@H]1CC[C@H]2[C@@H]3CCC4=CC(=O)CC[C@]4(C)[C@H]3CC[C@]12C [SPE_K70650177] | -4.09
57 | O=c1n(CCCN2CCN(c3cccc(Cl)c3)CC2)nc2ccccn12 [SPE_K70778732] | -8.41
58 | Nc1c(S(=O)(=O)O)cc(Nc2cccc3ccccc23)c2c1C(=O)c1ccccc1C2=O [SPE_K71266197] | -13.9
59 | Cc1c(C(=O)NCc2cccnc2)nn(-c2ccc(Cl)cc2Cl)c1-c1ccc(Cl)cc1 [SPE_K71315565] | 4.2
60 | C=CCC1(CC(C)C)C(=O)NC(=O)NC1=O [SPE_K71350836] | -15.8
61 | Cc1ccsc1/C=C/C1=NCCCN1C [SPE_K71454870] | -13.8
62 | CC(C)(Sc1cc(C(C)(C)C)c(O)c(C(C)(C)C)c1)Sc1cc(C(C)(C)C)c(O)c(C(C)(C)C)c1 [SPE_K72029282] | -0.8
63 | O=S(=O)(c1cccc2cnccc12)N1CCNCC1 [SPE_K72462751] | -15.9

Row | SMILES | activation at 10 µM [%]
64 | O=C(Nc1ccc(S(=O)(=O)Nc2ccccc2Cl)c(Cl)c1)c1ccccn1 [SPE_K72687424] | -10.9
65 | O=C1NC(=O)c2c1c1c3ccccc3[nH]c1c1[nH]c3ccccc3c21 [SPE_K72726508] | 12.7
66 | Nc1c[n+](N2CCOCC2)no1 [SPE_K72922393] | -10.9
67 | CC(C)(C)c1ccc(-c2nc3ccccc3[nH]2)cc1 [SPE_K73073971] | 9.59
68 | Nc1ccc(C(=O)Oc2ccccc2)c(O)c1 [SPE_K73157543] | -14.5
69 | COc1ccc(-c2coc3cc(O)cc(O)c3c2=O)cc1 [SPE_K73303757] | -15.6
70 | CNC[C@H](O)c1cccc(O)c1 [SPE_K73381542] | 3.82
71 | O=C(O)CCCCN(CCc1ccccc1OCc1ccc(CCc2ccccc2)cc1)Cc1ccc(C(=O)O)cc1 [SPE_K73440166] | 2.18
72 | CCCCOc1nc(N)c2c(n1)N(Cc1cccc(CN3CCCC3)c1)CC(=O)N2 [SPE_K73585091] | -10.5
73 | CC(=O)NCCc1c[nH]c2ccccc12 [SPE_K73700643] | -6.27
74 | NCCCCN [SPE_K75282878] | 0.35
75 | COc1cc(Nc2nc3ccccc3nc2NS(=O)(=O)c2ccc(NC(=O)c3ccc(C)c(OC)c3)cc2)cc(OC)c1 [SPE_K75308783] | -7.72
76 | COc1ccc(-c2sc(NC(=O)C(C)(C)C)nc2C)cc1S(=O)(=O)Nc1ccc(O)cc1 [SPE_K75528696] | 21.7
77 | O=C(/C=C/c1ccccc1)NCCO [SPE_K76021681] | 2.18
78 | CC(=O)O[C@]1(C(C)=O)CC[C@H]2[C@@H]3CCC4=CC(=O)CCC4=C3[C@@H](c3ccc(N(C)C)cc3)C[C@@]21C [SPE_K76197012] | -4.74
79 | Cc1ncc(CO)c(C=O)c1O [SPE_K76204040] | -1.79
80 | NS(=O)(=O)c1ccc(-n2nc(C(F)(F)F)cc2-c2ccc(Cl)cc2)cc1 [SPE_K76365178] | -2.4
81 | NC1(Cc2ccc(Cl)cc2)CCN(c2ncnc3[nH]ccc23)CC1 [SPE_K76406695] | -4.38
82 | CS(=O)(=O)Nc1ccc([N+](=O)[O-])cc1Oc1ccccc1 [SPE_K76775527] | -12.8
83 | CC(=O)Nc1ccc(S(=O)(=O)Nc2ccc([N+](=O)[O-])cc2)cc1 [SPE_K76845197] | -3.76
